Converted amounts (≈) assume the structure as drawn. Like-named read-outs stand apart in the source and are kept apart here.
What was measured:
[1] = tested on: methicillin-susceptible S. aureus (MSSA), MRSA and mutants thereof; test: MIC measurement, Test Example 3 (MSSA, MRSA and sequential gyrA/grlA quinolone-resistant mutants); format: cell-based, Staphylococcus aureus; conditions: Staphylococcus aureus
Text: That is, the first-step quinolone-resistant mutants are bacterial strains which are the same as their parent strains (clinical isolates) except that the genes shown in the corresponding parts of Table 1-1 are mutated. The second-step quinolone-resistant mutants are bacterial strains which are the same as the first-step quinolone-resistant mutants except that the genes shown in the corresponding parts of Table 1-1 are further mutated. The third-step quinolone-resistant mutants are bacterial strains which are the same as the second-step quinolone-resistant mutants except that the genes shown in the corresponding parts of Table 1-1 are further mutated. The fourth-step quinolone-resistant strain is a bacterial strain which is the same as the third-step quinolone-resistant mutant bacteria except that the gene shown in the corresponding part of Table 1-1 is further mutated.
(§1) Each of the bacterial strains listed in Table 1-1 was shake-cultured at 37° C. overnight in 4 mL of a medium (Tryptical Soy Broth: TSB, product of Becton Dickinson and Company). FDA209P was used as a control.
(§2) After completion of culturing, the resultant culture was suspended in a cation-adjusted Mueller Hinton Broth (CAMHB, product of Becton Dickinson and Company). Then, the obtained bacterial culture was adjusted in absorbance with the CAMHB so that the absorbance at 578 nm of the bacterial culture was adjusted to 0.3 measured by an absorption spectrometer. In addition, the resultant bacterial culture was 500-fold diluted with the CAMHB.
(§3) Each of the 500-fold diluted, pre-cultured bacterial cultures was added at 50 μL/well to the CAMHB containing the quinolones and the nybomycins at various concentrations (50 μL/well), followed by statically culturing at 37° C. overnight.
(§4) After completion of culturing, the growth of the bacteria was visually determined based on turbidity to measure MIC in each bacterial strain.

[2] = tested on: MRSA, CA-MRSA and MSSA of Staphylococcus aureus; test: MIC measurement, Test Example 4 (MRSA, CA-MRSA and MSSA strains); format: cell-based; conditions: Staphylococcus aureus
Method in brief: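 S. aureus strains (FDA209P control) grown overnight in TSB at 37° C, resuspended in CAMHB, adjusted to A578 0.3 and diluted 500-fold. Equal volume added to CAMHB with serial compound concentrations, incubated statically overnight at 37° C. MIC read visually as lowest concentration without turbidity.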

VRSA clinical isolates = test: microbe, parasite or virus in culture; format: cell-based; conditions: Staphylococcus aureus
Description: as §1, §2, §3, §4
Here, the glycopeptides used were VCM and TEIC. The β-lactam used was OXA.

Enterococcus faecalis = test: MIC measurement, Test Example 6 (enterococcus); format: cell-based; conditions: for MIC: Enterococcus faecalis, read-out: MIC
Description: as §1, §2, §3, §4
Quinolones and nybomycins were evaluated for antibacterial activity against Enterococcus faecalis shown in Table 6, wherein the other strains than NCTC12201 and NCTC12203 were subdivided from Shionogi & Co., Ltd (note that these strains are available also from the Department of Bacteriology, Juntendo University). The NCTC strains are both vancomycin-resistant E. faecalis and available from the National Collection of Type Cultures (NCTC).

In the case of `Cc1cc(=O)n2c3c(c4c(cc13)c(CO)cc(=O)n4C)OC2` [NM, nybomycin], the MIC ([1]; FDA209P / MRSA / MSSA, FDA209P (MSSA), control, read-out: MIC) is reported as greater than 64 µg/mL, the MIC ([1]; MR5867 (MRSA), clinical isolate parent strain, no mutation) is reported as greater than 64 µg/mL and the MIC ([1]; MR5867-1, first-step quinolone-resistant mutant, grlA E84K) is reported as greater than 64 µg/mL. For the same molecule, the MIC ([1]; MS5935 (MSSA), clinical isolate parent strain, no mutation, read-out: MIC) was greater than 64 µg/mL, the MIC ([1]; MS5935-1, first-step quinolone-resistant mutant, grlA S80F) was greater than 64 µg/mL and the MIC ([1]; MS5952 (MSSA), clinical isolate parent strain, no mutation, read-out: MIC) was greater than 64 µg/mL. The MIC ([1]; MS5952-1, first-step quinolone-resistant mutant, grlA S80Y) was greater than 64 µg/mL, the MIC ([2]; ATCC 29213 / MRSA / MSSA, ATCC 29213, MSSA) was 64 µg/mL (≈ 215 µM) and the MIC ([2]; COL, MRSA) was greater than 64 µg/mL. For the same molecule, the MIC ([2]; FDA209P / MRSA / MSSA, FDA209P, MSSA) was 64 µg/mL (≈ 215 µM), the MIC ([2]; ISA12-1, MRSA) was greater than 64 µg/mL and the MIC ([2]; ISA12-2, MRSA) was greater than 64 µg/mL. For the same molecule, the MIC ([2]; ISA35-1, MRSA) was greater than 64 µg/mL, the MIC ([2]; ISA37-1, MSSA) was greater than 64 µg/mL and the MIC ([2]; ISA49-1, MSSA) was greater than 64 µg/mL. The MIC ([2]; ISA51-1, MSSA) was greater than 64 µg/mL, the MIC ([2]; ISA56-3, MRSA) was greater than 64 µg/mL and the MIC ([2]; ISA58-1, MRSA) was 16 µg/mL (≈ 53.6 µM). It also gave an MIC ([2]; ISA62-1, MRSA) greater than 64 µg/mL, an MIC ([2]; ISA73-1, MSSA) greater than 64 µg/mL and an MIC ([2]; KBSA32, MRSA) greater than 64 µg/mL. The MIC ([2]; KBSA34, MRSA) was greater than 64 µg/mL, the MIC ([2]; KBSA72, MRSA) was no more than 0.063 µg/mL and the MIC ([2]; KBSA96, MRSA) was 0.125 µg/mL (≈ 0.419 µM). For the same molecule, the MIC ([2]; KBSA171, MRSA) was 0.25 µg/mL (≈ 0.838 µM), the MIC ([2]; KSA24, MRSA) was 0.5 µg/mL (≈ 1.68 µM) and the MIC ([2]; KSA31, MRSA) was 1 µg/mL (≈ 3.35 µM). The MIC ([2]; KSA36, MRSA) was no more than 0.063 µg/mL, the MIC ([2]; MRSA / MSSA / NCTC 8325, NCTC 8325, MSSA) was greater than 64 µg/mL and the MIC ([2]; MRSA / MSSA / USA300, USA300 FPR3757, CA-MRSA) was 0.25 µg/mL (≈ 0.838 µM). For the same molecule, the MIC ([2]; MW2, CA-MRSA) was 64 µg/mL (≈ 215 µM), the MIC ([2]; N315, MRSA) was 64 µg/mL (≈ 215 µM) and the MIC (VRSA clinical isolates; VRS1, VRSA, Michigan) was 0.125 µg/mL (≈ 0.419 µM). It also gave an MIC (VRSA clinical isolates; VRS2, VRSA, Pennsylvania) of 0.25 µg/mL (≈ 0.838 µM), an MIC (VRSA clinical isolates; VRS3, VRSA, New York) of 0.125 µg/mL (≈ 0.419 µM) and an MIC (VRSA clinical isolates; VRS4, VRSA, New York) of 0.125 µg/mL (≈ 0.419 µM). The MIC (VRSA clinical isolates; VRS5, VRSA, Michigan) was no more than 0.063 µg/mL, the MIC (VRSA clinical isolates; VRS6, VRSA, Michigan) was no more than 0.063 µg/mL and the MIC (VRSA clinical isolates; VRS7, VRSA, Michigan) was 0.5 µg/mL (≈ 1.68 µM). The MIC (Enterococcus faecalis; E. faecalis 36-15672, quinolone-susceptible enterococci) was greater than 64 µg/mL, the MIC (Enterococcus faecalis; E. faecalis 36-15673, quinolone-susceptible enterococci) was greater than 64 µg/mL and the MIC (Enterococcus faecalis; E. faecalis 36-15678, quinolone-susceptible enterococci) was greater than 64 µg/mL. For the same molecule, the MIC (Enterococcus faecalis; E. faecalis 36-15686, quinolone-resistant enterococci) was 0.5 µg/mL (≈ 1.68 µM), the MIC (Enterococcus faecalis; E. faecalis 36-15688, quinolone-susceptible enterococci) was greater than 64 µg/mL and the MIC (Enterococcus faecalis; E. faecalis 36-15694, quinolone-resistant enterococci) was 1 µg/mL (≈ 3.35 µM). For the same molecule, the MIC (Enterococcus faecalis; E. faecalis 36-15696, quinolone-susceptible enterococci) was greater than 64 µg/mL, the MIC (Enterococcus faecalis; E. faecalis 36-15703, quinolone-resistant enterococci) was 2 µg/mL (≈ 6.7 µM) and the MIC (Enterococcus faecalis; E. faecalis 36-15716, quinolone-resistant enterococci) was 1 µg/mL (≈ 3.35 µM). The MIC (Enterococcus faecalis; E. faecalis 36-15718, quinolone-susceptible enterococci) was 32 µg/mL (≈ 107 µM), the MIC (Enterococcus faecalis; E. faecalis 36-15720, quinolone-susceptible enterococci) was greater than 64 µg/mL and the MIC (Enterococcus faecalis; E. faecalis 36-15722, quinolone-resistant enterococci) was 1 µg/mL (≈ 3.35 µM). It also gave an MIC (Enterococcus faecalis; E. faecalis 36-15726, quinolone-resistant enterococci) of 0.5 µg/mL (≈ 1.68 µM), an MIC (Enterococcus faecalis; E. faecalis 36-15730, quinolone-susceptible enterococci) greater than 64 µg/mL and an MIC (Enterococcus faecalis; E. faecalis 36-15736, quinolone-susceptible enterococci) greater than 64 µg/mL. It also gave an MIC (Enterococcus faecalis; E. faecalis 36-15741, quinolone-susceptible enterococci) greater than 64 µg/mL, an MIC (Enterococcus faecalis; NCTC 12201 / VRE, E. faecalis NCTC12201, vancomycin-resistant (VRE), quinolone-susceptible enterococci) of 8 µg/mL (≈ 26.8 µM) and an MIC (Enterococcus faecalis; NCTC 12203 / VRE, E. faecalis NCTC12203, vancomycin-resistant (VRE), quinolone-susceptible enterococci) of 16 µg/mL (≈ 53.6 µM). The “antibacterial activity, comparison between NM and DNM” value (Enterococcus faecalis; against enterococci) was “higher antibacterial activity against enterococci than DNM”.

Reference: patent publication US20120258980A1, “Antibacterial Agent for Drug-Resistant Bacteria, Method for Screening for Same, and Use of Same” (priority 2009, published 2012)
